Data as given in PubChem BioAssay (NCI).
Where “and” joins values, the source holds several entries; their conditions need not be identical. Identical values can stand only once.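 These data come from cells grown in 96-well plates and exposed to compound for 48 hours at five concentrations. GI50: concentration for 50% inhibition of growth. TGI is the concentration that stops growth completely.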

What was measured:
Assay in all cases: NCI-60 cell line screen, 48 h
CAKI-1 renal = tested on: CAKI-1 renal
M14 melanoma = tested on: M14 melanoma
MOLT-4 leukemia = tested on: MOLT-4 leukemia
OVCAR-8 ovarian = tested on: OVCAR-8 ovarian
RPMI-8226 leukemia = tested on: RPMI-8226 leukemia
SK-MEL-2 melanoma = tested on: SK-MEL-2 melanoma
SN12C renal = tested on: SN12C renal
T-47D breast = tested on: T-47D breast
U251 CNS = tested on: U251 CNS
EKVX NSCLC = tested on: EKVX NSCLC

SMILES | TGI (CAKI-1 renal) | TGI (M14 melanoma) [µM] | TGI (MOLT-4 leukemia) [µM] | TGI (OVCAR-8 ovarian) [µM] | TGI (RPMI-8226 leukemia) [µM] | TGI (SK-MEL-2 melanoma) [µM] | TGI (SN12C renal) [µM] | TGI (T-47D breast) [µM] | TGI (U251 CNS) [µM] | TGI (EKVX NSCLC) [µM] | GI50 (CAKI-1 renal) [µM]
c1ccc([P+](c2ccccc2)(c2ccccc2)c2ccc([P+](c3ccccc3)(c3ccccc3)c3ccccc3)cc2)cc1 | > 100 µM | > 100 | > 100 | > 100 | > 100 | > 100 | > 100 | > 100 | > 100 |  | 
CC1(C)[C@@H]2CC[C@@]1(C)[C@H](O)[C@@H]2SCc1ccccc1 | 43.1 µM | 30.1 | 49.7 | 37.2 | > 100 | 33.7 | 34.5 | 62.8 | 31.7 | 34.2 | 
CCOC(=O)C1CCCCc2sc(N)c(C#N)c21 (centres undefined) |  | > 100 | > 100 | > 100 | > 100 | > 100 | > 100 |  | > 100 | > 100 | 
Cc1ccc(/C=C2\CN(C)CC3C2=NC(=S)NC3c2ccc(C)cc2)cc1 (centres undefined) | > 100 µM | > 100 | 56 | > 100 | > 100 | > 100 | > 100 | 96.9 | > 87.4 | > 40.3 | 
COC(=O)/C=C/c1ccc2c(c1)CC1(Cc3ccccc3C1)C2 |  | > 100 | > 100 | > 100 | > 100 | > 100 | > 100 | > 100 | > 100 | > 100 | 
Cc1cn([C@H]2[C@@H](CO)C[C@H]2O)c(=O)[nH]c1=O | > 100 µM |  | > 100 | > 100 | > 100 | > 100 | > 100 |  | > 100 | > 100 | 
COc1ccc(-c2c3ccccc3c(-c3ccc(OCCCCCBr)cc3)c3ccccc23)cc1 | > 100 µM | > 100 | > 100 | > 100 | > 100 | > 100 | > 100 |  |  | > 100 | 
O=S1(=O)OCCOS(=O)(=O)C1Cc1nc2ccccc2[nH]1 | 95.4 µM | > 100 | 92.4 | > 100 | > 100 | > 100 | > 100 |  | > 100 | > 100 | 
CO[P@]1(=O)O[C@@H](c2ccccc2)[C@H](O)[C@@]1(O)c1ccccc1 | > 100 µM | > 100 | > 100 | > 100 |  | > 100 | > 100 | > 100 | > 100 | > 100 | 
COC(=O)C(NC(=O)CSc1nnc(COc2ccc(Cl)cc2)n1-c1ccccc1)C(C)C (centres undefined) | 25.1 µM | 58 | > 100 | 64.7 |  | 35.1 | 37.1 | 70.6 | > 100 | 73.1 | 
Nc1c(N=Nc2ccc(-c3ccc(N=Nc4c(O)ccc5cc(S(=O)(=O)O)cc(S(=O)(=O)O)c45)cc3)cc2)c(S(=O)(=O)O)cc2cc(S(=O)(=O)O)c(N=Nc3ccccc3)c(O)c12 |  |  | > 100 | > 100 | > 100 | > 100 | > 100 |  | > 100 | > 100 | 
CC(C)(C)c1c(C(C)(C)C)c(=O)c1=O | > 100 µM | > 100 | > 100 | > 100 | > 100 | > 100 | > 100 |  | > 100 | > 100 | 
COc1ccc(C2=C(OC(=O)N(C)C)c3cccn3-c3cc(Cl)ccc3S2)cc1 | > 10 µM | > 10 | > 10 | > 10 | > 10 |  | > 10 | > 10 |  | > 10 | 
CC(=O)CC1(C)OC(N)=C(C#N)C1(C#N)C#N (centres undefined) | > 100 µM | > 100 |  | > 100 | > 100 | > 100 | > 100 | > 100 | > 100 | > 100 | 
CC12CC(c3ccccc3O1)C(C(=O)Nc1cccc(F)c1)C(=O)N2 (centres undefined) | > 100 µM | > 100 | 54.2 | 80.6 | > 100 | > 100 |  | 89.2 | > 100 | > 100 | 
C=C1CC(Cn2cc(Br)c(=O)[nH]c2=O)(c2ccc(-c3ccccc3)cc2)OC1=O (centres undefined) | 4.41 µM | 3.12 |  | 4.29 | 0.574 | 3.26 | 4.67 | 4.87 | 18.4 | 7.42 | 
Cc1ccc2c(c1)CC1(C2=O)[C@H](c2ccccc2)C2C(=O)c3ccc(C)cc3C2[C@H]1c1ccccc1 (some centres undefined) | > 100 µM | > 100 | > 100 | > 100 |  |  | > 100 | > 100 | > 100 | > 100 | 
OC12CCCCCC1(N1CCOCC1)c1ccccc12 (centres undefined) | > 100 µM | > 100 | > 100 | > 100 | > 100 | > 100 | > 100 |  | > 100 |  | 
CC(C)C1CC(CO)(CNc2cc(Cl)nc(N)n2)C1 (centres undefined) | > 100 µM |  |  | > 100 | > 100 | > 100 | > 100 | 87.9 | > 100 | > 100 | 
C=CCOC(=O)CCCCCCCCCCCCCCCOC(=O)C1=C(CCC[C@@H](C)O[Si](C)(C)C(C)(C)C)NC(=O)N2[C@H](CC3(CC/C=C\[C@H](CC)O[Si](C(C)C)(C(C)C)C(C)C)OCCO3)CC[C@H]12 | > 100 µM | > 100 |  |  | > 100 | > 100 | > 100 | > 100 | > 100 | > 100 | 
COC(=O)n1c(C[P+](c2ccccc2)(c2ccccc2)c2ccccc2)cc2ccccc21 | 7.15 µM | 7.37 | 17.8 | 10.4 | 14.7 | 4.97 | 11.7 |  | 17.5 | 11.1 | 
CC(C)(C)CC(C)(C)c1ccc(OCCOCC[N+](C)(C)Cc2ccccc2)cc1 | 38.2 µM and 30.8 µM | 6.11 | 6.05 | 12.8 | 3.83 | 9.71 | 12.7 |  | 4.44 | 16.9 | 15.1
COc1ccc(-c2nc(-c3cnccn3)n(C3OC(CO)C(O)C(O)C3O)n2)cc1 (centres undefined) |  | > 100 | > 100 | > 100 | > 100 |  | > 100 | > 100 | > 100 | > 100 | 
